In brackets after ≈: the same amount, converted by molar mass. Activity calls are given as the source filed them. The rule behind the calls is not given here.
How the values were obtained:
Klebsiella aerogenes = test: Bactericidal activity against Enterobacter aerogenes 15630 assessed as inhibition of bacterial growth incubated for 16 to 20 hrs; format: functional; conditions: time 16-20 hrs
Vibrio vulnificus [1] = test: Antibacterial activity against Vibrio vulnificus 204 assessed as inhibition of bacterial growth incubated for 16 to 20 hrs in presence of human serum; format: functional; conditions: time 16-20 hrs
Salmonella enterica [2] = test: Bactericidal activity against Salmonella enterica 15455 assessed as inhibition of bacterial growth incubated for 16 to 20 hrs in presence of human serum; format: functional; conditions: time 16-20 hrs
Klebsiella pneumoniae [3] = test: Antibacterial activity against Klebsiella pneumoniae 10692 assessed as inhibition of bacterial growth incubated for 16 to 20 hrs; format: functional; conditions: time 16-20 hrs
Salmonella enterica [4] = test: Bactericidal activity against Salmonella enterica 15455 assessed as inhibition of bacterial growth incubated for 16 to 20 hrs; format: functional; conditions: time 16-20 hrs
Yersinia enterocolitica [5] = test: Bactericidal activity against Yersinia enterocolitica 13999 assessed as inhibition of bacterial growth incubated for 16 to 20 hrs; format: functional; conditions: time 16-20 hrs
Klebsiella pneumoniae [6] = test: Bactericidal activity against Klebsiella pneumoniae BAA 2473 assessed as inhibition of bacterial growth in presence of 0.1 microg/ml of trypsin (reference value: 1.56 to 3.13 microM); format: functional
Escherichia coli [7] = test: Antibacterial activity against Escherichia coli 10675 assessed as inhibition of bacterial growth incubated for 16 to 20 hrs; format: functional; conditions: time 16-20 hrs
Acinetobacter baumannii [8] = test: Antibacterial activity against Acinetobacter baumannii 10591 assessed as inhibition of bacterial growth incubated for 16 to 20 hrs; format: functional; conditions: time 16-20 hrs
Vibrio vulnificus [9] = test: Bactericidal activity against Vibrio vulnificus 204 assessed as inhibition of bacterial growth incubated for 16 to 20 hrs in presence of human serum; format: functional; conditions: time 16-20 hrs
Enterococcus faecium [10] = test: Antibacterial activity against Enterococcus faecium 10067 assessed as inhibition of bacterial growth incubated for 16 to 20 hrs in presence of human serum; format: functional; conditions: time 16-20 hrs
Klebsiella pneumoniae [11] = test: Bactericidal activity against Klebsiella pneumoniae BAA 2473 assessed as inhibition of bacterial growth in presence of 1 microg/ml of trypsin (reference value: 1.56 to 3.13 microM); format: functional
Klebsiella pneumoniae [12] = test: Bactericidal activity against Klebsiella pneumoniae BAA 2473 assessed as inhibition of bacterial growth in presence of 0.1 microg/ml of pepsin (reference value: 1.56 to 3.13 microM); format: functional
Pseudomonas aeruginosa [13] = test: Bactericidal activity against Pseudomonas aeruginosa 19660 assessed as inhibition of bacterial growth incubated for 16 to 20 hrs; format: functional; conditions: time 16-20 hrs
Klebsiella pneumoniae [14] = test: Antibacterial activity against Klebsiella pneumoniae BAA 2473 assessed as bacterial eradication measured at 10 hrs; format: functional, organism-based
Klebsiella pneumoniae [15] = test: Antibacterial activity against Klebsiella pneumoniae BAA 2473 assessed as inhibition of bacterial growth in presence of 0.1 microg/ml of proteinase K (reference value: 1.56 to 3.13 microM); format: functional
Klebsiella pneumoniae [16] = test: Bactericidal activity against Klebsiella pneumoniae BAA 2473 assessed as inhibition of bacterial growth in presence of 10 microg/ml of chymotrypsin (reference value: 1.56 to 3.13 microM); format: functional
[17] = system: Staphylococcus haemolyticus; test: Antibacterial activity against Staphylococcus haemolyticus 15237 assessed as inhibition of bacterial growth incubated for 16 to 20 hrs; format: functional; conditions: time 16-20 hrs
Enterococcus faecium [18] = test: Antibacterial activity against Enterococcus faecium 10067 assessed as inhibition of bacterial growth incubated for 16 to 20 hrs; format: functional; conditions: time 16-20 hrs
Klebsiella pneumoniae [19] = test: Antibacterial activity against Klebsiella pneumoniae BAA 2473 assessed as inhibition of bacterial growth in presence of doxycycline; format: functional
Rhizopus arrhizus [20] = test: Fungicidal activity against Rhizopus oryzae 34550 assessed as inhibition of fungal growth incubated for 72 hrs; format: functional
Pseudomonas aeruginosa [21] = test: Bactericidal activity against Pseudomonas aeruginosa 19660 assessed as inhibition of bacterial growth incubated for 16 to 20 hrs in presence of human serum; format: functional; conditions: time 16-20 hrs
Salmonella typhimurium = test: Bactericidal activity against Salmonella typhimurium DT104 assessed as inhibition of bacterial growth incubated for 16 to 20 hrs; format: functional, Salmonella enterica subsp. enterica serovar Typhimurium; conditions: Salmonella enterica, time 16-20 hrs
Klebsiella pneumoniae [22] = test: Bactericidal activity against Klebsiella pneumoniae BAA 2473 assessed as inhibition of bacterial growth in presence of 0.1 microg/ml of proteinase K (reference value: 1.56 to 3.13 microM); format: functional
Acinetobacter baumannii [23] = test: Bactericidal activity against Acinetobacter baumannii 10591 assessed as inhibition of bacterial growth incubated for 16 to 20 hrs in presence of human serum; format: functional; conditions: time 16-20 hrs
Klebsiella pneumoniae [24] = test: Bactericidal activity against Klebsiella pneumoniae BAA 2473 assessed as inhibition of bacterial growth incubated for 16 to 20 hrs; format: functional; conditions: time 16-20 hrs
Vibrio vulnificus [25] = test: Antibacterial activity against Vibrio vulnificus 204 assessed as inhibition of bacterial growth incubated for 16 to 20 hrs; format: functional; conditions: time 16-20 hrs
Vibrio vulnificus [26] = test: Bactericidal activity against Vibrio vulnificus 204 assessed as inhibition of bacterial growth incubated for 16 to 20 hrs; format: functional; conditions: time 16-20 hrs
Rhizopus arrhizus [27] = test: Antifungal activity against Rhizopus oryzae 34550 assessed as inhibition of fungal growth incubated for 16 to 20 hrs in presence of human serum; format: functional; conditions: time 16-20 hrs
Klebsiella pneumoniae [28] = test: Bactericidal activity against Klebsiella pneumoniae TL 297 assessed as inhibition of bacterial growth incubated for 16 to 20 hrs in presence of human serum; format: functional; conditions: time 16-20 hrs
Yersinia enterocolitica [29] = test: Antibacterial activity against Yersinia enterocolitica 13999 assessed as inhibition of bacterial growth incubated for 16 to 20 hrs; format: functional; conditions: time 16-20 hrs
Klebsiella pneumoniae [30] = test: Antimicrobial activity against drug-resistant Klebsiella pneumoniae BAA 2473 infected in C57BL/6 mouse assessed as reduction in bacterial load at 5 mg/kg, po administered for 2 hrs and measured at 24 hrs; format: functional, organism-based; conditions: time 26.0 hrs
Klebsiella pneumoniae [31] = test: Bactericidal activity against Klebsiella pneumoniae BAA 2473 assessed as inhibition of bacterial growth in presence of 10 microg/ml of proteinase K (reference value: 1.56 to 3.13 microM); format: functional
Klebsiella pneumoniae [32] = test: Bactericidal activity against Klebsiella pneumoniae BAA 2473 assessed as inhibition of bacterial growth in presence of 10 microg/ml of trypsin (reference value: 1.56 to 3.13 microM); format: functional
Acinetobacter baumannii [33] = test: Antibacterial activity against Acinetobacter baumannii 10591 assessed as inhibition of bacterial growth incubated for 16 to 20 hrs in presence of human serum; format: functional; conditions: time 16-20 hrs
Klebsiella pneumoniae [34] = test: Antibacterial activity against Klebsiella pneumoniae BAA 2473 assessed as inhibition of bacterial growth in presence of 0.1 microg/ml of chymotrypsin (reference value: 1.56 to 3.13 microM); format: functional
Enterococcus faecalis = test: Bactericidal activity against Enterococcus faecalis 10066 assessed as inhibition of bacterial growth incubated for 16 to 20 hrs; format: functional; conditions: time 16-20 hrs
Klebsiella pneumoniae [35] = test: Antibacterial activity against Klebsiella pneumoniae BAA 2473 assessed as inhibition of bacterial growth in presence of 10 microg/ml of pepsin (reference value: 1.56 to 3.13 microM); format: functional
Escherichia coli [36] = test: Antibacterial activity against Escherichia coli 10675 assessed as inhibition of bacterial growth incubated for 16 to 20 hrs in presence of human serum; format: functional; conditions: time 16-20 hrs
Klebsiella pneumoniae [37] = test: Antibacterial activity against Klebsiella pneumoniae BAA 2473 assessed as inhibition of bacterial growth in presence of 1 microg/ml of chymotrypsin (reference value: 1.56 to 3.13 microM); format: functional
Klebsiella pneumoniae [38] = test: Antibacterial activity against Klebsiella pneumoniae BAA 2473 assessed as inhibition of bacterial growth in presence of 10 microg/ml of chymotrypsin (reference value: 1.56 to 3.13 microM); format: functional

Structure (SMILES): CC(C)C[C@H](NC(=O)[C@H](CCCCN)NC(=O)[C@@H](CCCCN)NC(=O)[C@H](CC(C)C)NC(=O)[C@@H](N)Cc1ccccc1)C(=O)N[C@H](CC(C)C)C(=O)N[C@@H](CCCCN)C(=O)N[C@@H](C)C(=O)N[C@H](CC(C)C)C(=O)N[C@@H](Cc1ccccc1)C(=O)N[C@@H](CO)C(=O)N[C@H](C)C(=O)N1CCC[C@H]1C(=O)N[C@@H](CCCCN)C(=O)N[C@H](C)C(=O)N[C@@H](CC(C)C)C(=O)N[C@@H](CCCCN)C(=O)N[C@H](CCCNC(=N)N)C(=O)N[C@@H](CC(C)C)C(=O)N[C@@H](CC(C)C)C(=O)N[C@H](CCCNC(=N)N)C(=O)N[C@@H](CCCNC(=N)N)C(=O)N[C@@H](CCCNC(=N)N)C(=O)N[C@H](CCCNC(=N)N)C(=O)N[C@@H](CCCNC(=N)N)C(=O)O
- MBC (Klebsiella aerogenes): 6.25 µM (≈ 19.2 µg/mL)
- MIC (Vibrio vulnificus [1]): 12.5 µM
- MBC (Salmonella enterica [2]): 0.78 µM
- MIC (Klebsiella pneumoniae [3]): 3.13 µM (≈ 9.64 µg/mL)
- MBC (Salmonella enterica [4]): 6.25 µM (≈ 19.2 µg/mL)
- MBC (Yersinia enterocolitica [5]): 3.13 µM (≈ 9.64 µg/mL)
- MBC (Klebsiella pneumoniae [6]): 0.78 µM
- MIC (Escherichia coli [7]): 1.56 µM (≈ 4.8 µg/mL)
- MIC (Acinetobacter baumannii [8]): 3.13 µM (≈ 9.64 µg/mL)
- MBC (Vibrio vulnificus [9]): 12.5 µM
- MIC (Enterococcus faecium [10]): 100 µM
- MBC (Klebsiella pneumoniae [11]): 1.56 µM
- MBC (Klebsiella pneumoniae [12]): 0.78 µM
- MBC (Pseudomonas aeruginosa [13]): 3.13 µM (≈ 9.64 µg/mL)
- Activity (Klebsiella pneumoniae [14]): Active
- MIC (Klebsiella pneumoniae [15]): 0.78 µM
- MBC (Klebsiella pneumoniae [16]): 0.78 µM
- MIC [17]: 1.56 µM (≈ 4.8 µg/mL)
- MIC (Enterococcus faecium [18]): 3.13 µM (≈ 9.64 µg/mL)
- MIC (Klebsiella pneumoniae [19]): 0.39 µM
- MFC (Rhizopus arrhizus [20]): 0.78 µM (≈ 2.4 µg/mL)
- MBC (Pseudomonas aeruginosa [21]): 6.25 µM
- MBC (Salmonella typhimurium): 6.25 µM (≈ 19.2 µg/mL)
- MBC (Klebsiella pneumoniae [22]): 0.78 µM
- MBC (Acinetobacter baumannii [23]): 6.25 µM
- MBC (Klebsiella pneumoniae [24]): 25 µM (≈ 77 µg/mL)
- MIC (Vibrio vulnificus [25]): 12.5 µM (≈ 38.5 µg/mL)
- MBC (Vibrio vulnificus [26]): 12.5 µM (≈ 38.5 µg/mL)
- MIC (Rhizopus arrhizus [27]): 3.13 µM
- MBC (Klebsiella pneumoniae [28]): 1.56 µM
- MIC (Yersinia enterocolitica [29]): 3.13 µM (≈ 9.64 µg/mL)
- Activity (Klebsiella pneumoniae [30]): inactive
- MBC (Klebsiella pneumoniae [31]): 0.78 µM
- MBC (Klebsiella pneumoniae [32]): 1.56 µM
- MIC (Acinetobacter baumannii [33]): 3.13 µM
- MIC (Klebsiella pneumoniae [34]): 0.78 µM
- MBC (Enterococcus faecalis): > 12.5 µM
- MIC (Klebsiella pneumoniae [35]): 0.78 µM
- MIC (Escherichia coli [36]): 0.78 µM
- MIC (Klebsiella pneumoniae [37]): 0.78 µM
- MIC (Klebsiella pneumoniae [38]): 0.78 µM
